“And” between values parts separate entries of the source, which are not always exact repeats. Equal entries are not always repeated.
Columns and labels:
Type in all cases: in vivo
[1] = tested on: patient undergoing opioid therapy; assay: Clinical studies of devazepide in combination with an opioid (opioid dose reduction); conditions: for reduction of opioid dose: clinical studies, devazepide with opioid
[2] = tested on: patients with neuropathic pain; assay: Open label multicentre continuation study of devazepide (clinical assessment study); conditions: devazepide 1.25 mg, 2.5 mg or 5.0 mg twice daily for up to 26 weeks
From the text: Patients who took part in the study had pain with a neuropathic element, and were taking regular doses of strong opioids. […] The primary objective of this study was to compare descriptive and visual analogue scale (VAS) assessments of pain and pain relief in patients with neuropathic pain. […] Devazepide treatment was continued for a period of up to six months. During the study patients were required to remain on regular doses of opioids at a dose prescribed by the investigator. Patients were assessed at clinic visits at week 1, week 2 (dose escalation) and thereafter at routine monthly clinic visits. At weekly intervals for the first eight weeks and at monthly intervals thereafter, patients recorded pain and global pain relief using VAS and descriptive pain questionnaires. The questionnaires were returned to the Investigator at the monthly visits. At each clinic visit the Investigator assessed safety and the patients' pain relief, reviewed the dosage, and decided if devazepide treatment should be continued.

[3] = tested on: patients with moderate or severe neuropathic pain; assay: Multi-centre, double blind placebo controlled crossover study of devazepide as adjunctive therapy to strong opioids

With `CN1C(=O)[C@@H](NC(=O)c2cc3ccccc3[nH]2)N=C(c2ccccc2)c2ccccc21` [devazepide, 3s-(−) 1,3dihydro-3-(2-indolecarbonylamino)-1-methyl-5-phenyl-2H-1,4-benzodiazepin-2-one] the “reduction of opioid dose” value ([1]; in others) was no more than 75%, the “reduction of opioid dose” value ([1]; in some cases) was no more than 95% and the “effect in combination with an opioid” value ([1]; opioid dose reduced concurrent with improved analgesia) was “superpotentiating”. The “patients who appeared to achieve long-term pain relief” value ([2]; of seventeen patients, long-term = 5-26 weeks, with regular opioids) was “ten”, the daily opioid dose ([2]; several patients) was “markedly reduced” and the “Analgesic use expressed as a percentage of pre-treatment use (sum of daily dose)” value (“Analgesic use expressed as a percentage” below) ([3]; in vivo) was 100% and 67%. For the same compound, the “Analgesic use expressed as a percentage” value ([3]; patient ap06/05, analgesic morphine (mg), devazepide 1.25 mg twice daily for two weeks) was 104%, the “Analgesic use expressed as a percentage” value ([3]; patient ap06/05, analgesic morphine (mg), devazepide 5 mg twice daily for two weeks) was 100% and the “Analgesic use expressed as a percentage” value ([3]; patient ap06/05, analgesic tramadol (mg), devazepide 1.25 mg twice daily for two weeks) was 79%. The “Analgesic use expressed as a percentage” value ([3]; patient ap06/05, analgesic tramadol (mg), devazepide 5 mg twice daily for two weeks) was 54%, the “Analgesic use expressed as a percentage” value ([3]; patient gg01/01, analgesic co-codamol (tablets), devazepide 1.25 mg twice daily for two weeks) was 106% and the “Analgesic use expressed as a percentage” value ([3]; patient gg01/01, analgesic co-codamol (tablets), devazepide 5 mg twice daily for two weeks) was 78%. The “Analgesic use expressed as a percentage” value ([3]; patient gg03/03, analgesic morphine (mg), devazepide 1.25 mg twice daily for two weeks) was 55%, the “Analgesic use expressed as a percentage” value ([3]; patient gg03/03, analgesic morphine (mg), devazepide 5 mg twice daily for two weeks) was 93% and the “Analgesic use expressed as a percentage” value ([3]; patient ng02/02, analgesic diclofenac (mg), devazepide 1.25 mg twice daily for two weeks) was 17%. The “Analgesic use expressed as a percentage” value ([3]; patient ng02/02, analgesic diclofenac (mg), devazepide 5 mg twice daily for two weeks) was 50%, the “Analgesic use expressed as a percentage” value ([3]; patient ng02/02, analgesic morphine (mg), devazepide 1.25 mg twice daily for two weeks) was 87% and the “Analgesic use expressed as a percentage” value ([3]; patient ng02/02, analgesic morphine (mg), devazepide 5 mg twice daily for two weeks) was 84%. For the same compound, the “Analgesic use expressed as a percentage” value ([3]; patient ng05/05, analgesic morphine (mg), devazepide 1.25 mg twice daily for two weeks) was 104%, the “Analgesic use expressed as a percentage” value ([3]; patient ng05/05, analgesic morphine (mg), devazepide 5 mg twice daily for two weeks) was 100% and the “Analgesic use expressed as a percentage” value ([3]; patient ng05/05, analgesic paracetamol (mg), devazepide 1.25 mg twice daily for two weeks) was 48%. The “Analgesic use expressed as a percentage” value ([3]; patient ng05/05, analgesic paracetamol (mg), devazepide 5 mg twice daily for two weeks) was 14%, the “Analgesic use expressed as a percentage” value ([3]; patient sj03/03, analgesic morphine (mg), devazepide 1.25 mg twice daily for two weeks) was 93% and the “Analgesic use expressed as a percentage” value ([3]; patient sj03/03, analgesic morphine (mg), devazepide 5 mg twice daily for two weeks) was 97%. The “Analgesic use expressed as a percentage” value ([3]; patient sj03/03, analgesic morphine (ml), devazepide 1.25 mg twice daily for two weeks) was 13%, the “Analgesic use expressed as a percentage” value ([3]; patient sj03/03, analgesic morphine (ml), devazepide 5 mg twice daily for two weeks) was 5% and the “Analgesic use expressed as a percentage” value ([3]; patient sj10/73, analgesic dihydrocodeine (mg), devazepide 1.25 mg twice daily for two weeks) was 100%. For the same compound, the “Analgesic use expressed as a percentage” value ([3]; patient sj10/73, analgesic dihydrocodeine (mg), devazepide 5 mg twice daily for two weeks) was 50%, the “Analgesic use expressed as a percentage” value ([3]; patient sj10/73, analgesic morphine (mg), devazepide 1.25 mg twice daily for two weeks) was 100% and the “Analgesic use expressed as a percentage” value ([3]; patient sj10/73, analgesic morphine (mg), devazepide 5 mg twice daily for two weeks) was 98%. The “Analgesic use expressed as a percentage” value ([3]; patient sj10/73, analgesic paracetamol (mg), devazepide 1.25 mg twice daily for two weeks) was 75% and the “Analgesic use expressed as a percentage” value ([3]; patient sj10/73, analgesic paracetamol (mg), devazepide 5 mg twice daily for two weeks) was 50%.

— patent US20080125414A1, “Method of Treatment” (priority 2002, published 2008)
